Results taken from ChEMBL document CHEMBL1201862, “PubChem BioAssay data set” (2004).
Activity calls are given as the source filed them.

Columns and labels:
[1] = BJeHLT cell viability loss – BJeHLT cells, dry powder, counter-screen for Ras selective lethality project, dose response (AID 493052); format: functional, cell-based; details: Homo sapiens
[2] = DRD BJ cell killing, Ras synthetic lethality – DRD BJ fibroblasts, HRASV12, dry powder, dose response (AID 493049); format: functional, cell-based
[3] = HRAS-V12 fibroblast viability reduction – cell-based, Alamar Blue, dry powder, Ras selective lethality project, primary screen (AID 493045); format: functional; details: BJeLR
[4] = BJeH cell viability loss – BJeH cells, dry powder, counter-screen for Ras selective lethality project, dose response (AID 493054); format: functional, cell-based

Measured: AC50

COc1ccc(C(C(=O)NC2CCCCC2)N(C(=O)CCl)c2ccc(OC)c(Cl)c2)cc1 (centres undefined)
active: [1] 0.366 µM | [2] 0.126 µM | [3] 0.122 µM | [4] 0.536 µM
